# Earlier results, collected in patent US5409946A, “Isoxazole, isothiazole and pyrazole compounds that enhance cognitive function” (Abbott Laboratories, priority 1993, dated 1995).
# What was measured:
# [1] = cited from earlier work
# nicotinic receptors = details: chronic administration, without affecting affinity; cited from earlier work
# [2] = test system: signs and symptoms of nicotine withdrawal; details: double-blind studies; cited from earlier work
# cognitive function = details: acutely and chronically administered; cited from earlier work
compound,measurement,setting,value
CN1CCCC1c1cccnc1 (centres unmarked) [nicotine],pharmacokinetics,[1]; in vivo,unfavorable pharmacokinetics
same,oral bioavailability,[1]; oral,poor oral bioavailability
same,up-regulation of number of receptors,nicotinic receptors,50-100%
same,suppression of withdrawal signs and symptoms versus placebo,[2],far superior to a placebo
same,effect on cognitive function,cognitive function,enhances cognitive function in rats
